The record followed here is patent publication US20050202505A1, “Method to identify modulators for human 3alpha-hydroxysteroid dehydrogenase” (priority 2001, published 2005).

For one data set, the target named is T1, 3a-HSD (Homo sapiens, UniProt P52895).
T1 construct: Full length type III 3a-HSD cDNA is amplified by RT-PCR from human fetal brain total RNA; made in house; host or cells: E. coli BL21 (DE3)
T1 sequence (P52895 1-323): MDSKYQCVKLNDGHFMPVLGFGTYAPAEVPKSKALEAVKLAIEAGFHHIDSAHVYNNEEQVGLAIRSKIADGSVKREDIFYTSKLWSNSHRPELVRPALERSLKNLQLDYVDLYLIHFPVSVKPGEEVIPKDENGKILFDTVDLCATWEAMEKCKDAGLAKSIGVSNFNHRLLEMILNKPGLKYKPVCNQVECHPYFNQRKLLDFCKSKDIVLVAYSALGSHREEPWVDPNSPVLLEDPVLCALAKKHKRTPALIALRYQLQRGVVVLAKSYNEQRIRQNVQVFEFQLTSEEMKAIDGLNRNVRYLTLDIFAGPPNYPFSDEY
Put plainly: NMR ligand binding (line broadening of ligand resonances in the presence of protein). To be noted: ligand resonances in the presence of 3a-HSD. An excerpt: Binding of natural ligands is a prerequisite for functionality. One method to detect ligand binding by NMR takes advantage of the increased transverse relaxation rates of the ligand protons when the ligand is bound. Increased line widths in the presence of protein thus indicates binding. Binding experiments of NADP to 3a-HSD are done and check by NMR. In the presence of 3a-HSD, the NADP peaks are broadened so much that they are hardly visible in the spectrum.
(§1) Even then, the maximum achievable concentration of allo-pregnanolone is only about 20 μM. […] Based on the NMR analysis, 3a-HSD appears well-folded and functional in respect to cofactor- and ligand-binding.

The nature of data set [1]: maximum achievable concentration in aqueous NMR sample with co-solvents. Type of data set: physicochemical. The settings on record: water with 2% DMSO-d6 and 5% ethanol as co-solvents. On the procedure: as §1
The target in a further data set is T2, 3a-HSD type III (Homo sapiens, UniProt P52895).
T2 construct: Full length type III 3a-HSD cDNA is amplified by RT-PCR from human fetal brain total RNA; made in house; host or cells: E. coli BL21 (DE3)
T2 sequence (P52895 1-323): T1 sequence (P52895 1-323)
Description: NMR screening of fragment library. Format: binding. An excerpt: NMR spectroscopy can be used to discover and design inhibitors of 3a-HSD type III. This is due to the well-known ability of NMR to detect interactions between ligands and a target protein, even if the interactions are only weak and have affinities in the millimolar range (Diercks, T.; Coles, M.; Kessler, H. Applications of NMR in drug discovery. Curr. Opin. Chem. Biol. 2001, 5, 285-291; Hajduk, P. J.; Meadows, R. P.; Fesik, S. W. NMR-based screening in drug discovery. Q. Rev. Biophys. 1999, 32, 211-240; Pellecchia, M.; Sem, D. S.; Wuthrich, K. NMR in drug discovery. Nature Reviews Drug Discovery 2002, 1, 211-219). For this purpose, a solution of 3a-HSD is added to a mixture of compounds, and NMR properties of the compounds, such as their relaxation rates, are measured and compared in the presence and absence of 3a-HSD. […] This effect can be enhanced by about a factor of 15 if side chains of 3a-HSD are spin-labeled with paramagnetic centers such as TEMPO (2,2,6,6-Tetramethylpiperidin-N-oxyl) or PROXYL (2,2,5,5-Tetramethylpyrrolidine-N-oxyl) (Jahnke, W.; Ruedisser, S.; Zurini, M. Spin Label Enhanced NMR Screening. J. Am. Chem. Soc. 2001, 123, 3149-3150; Jahnke, W. Spin labels as a tool to identify and characterize protein—ligand interactions by NMR spectroscopy. ChemBioChem 2002, 3, 167-173). […]

In data set [2] the target is T3, recombinant type-3 human 3a-HSD (Homo sapiens, UniProt P52895).
T3 construct: Full length type III 3a-HSD cDNA is amplified by RT-PCR from human fetal brain total RNA; made in house; host or cells: E. coli BL21 (DE3)
T3 sequence (P52895 1-323): T1 sequence (P52895 1-323)
Put plainly: functional in vitro assay, oxidation of 3H-ALLO to 3H-5α-DHP. Format: biochemical. To be noted: NADP+, pH 7.4, 37° C., read-out: Ki OX. An excerpt:
(§2) Materials: Steroid standards (>98% purity) were purchased from Sigma Chemical Co. ^3H-allopregnanolone (64 Ci/mmol, [9, 11, 12-^3H(N)]-allopregnanolone, herein after referred to as ^3H-ALLO) was purchased from New England Nuclear. ^3H-5α-dihydroprogesterone (^3H-5α-DHP) was synthesized in our lab using an enzymatic conversion of ^3H-ALLO to ^3H-5α-DHP by the 3a-HSD (see Enzymatic reactions). The oxidation product ^3H-5α-DHP was isolated and purified by semi-preparative HPLC and confirmed by GC/MS. All solvents were of analytical grade (Merck) and were used without further purification.
(§3) Enzymatic reactions (oxidation of ^3H-ALLO to ^3H-5α-DHP and reduction of ^3H-5α-DHP to ^3H-ALLO): All enzymatic reactions were performed using pure recombinant type-3 human 3a-HSD expressed in E. coli and refolded and purified from bacterial inclusion bodies. ^3H-5a-DHP reduction was conducted in 100 μl reaction systems containing 100 mM sodium phosphate (pH 7.4), 4 μg of recombinant enzyme, 2 mM NADPH and 2.5 μM ^3H-5α-DHP (40 000 cpm) in 4% acetonitrile. Similarly, ^3H-ALLO oxidation was conducted in 100 μl reaction systems containing 100 mM sodium phosphate (pH 7.4), 4 μg of recombinant enzyme, 2 mM NADP^+ and 2.5 μM ^3H-ALLO (40 000 cpm) in 4% acetonitrile. Reactions were initiated by the addition of the respective substrate and were incubated at 37° C. for 25 min. […]

Substrate in data set [3]: CC(=O)[C@H]1CC[C@H]2[C@@H]3CC[C@H]4C[C@H](O)CC[C@]4(C)[C@H]3CC[C@]12C
The data set is described as above. Type of data set: biochemical. To be noted: other: oxidation of ALLO by the type-3 human 3a-HSD; pH 7.4; 37.0 °C.
From the text: as §2, §3

For the molecule `CC(=O)[C@H]1CC[C@H]2[C@@H]3CC[C@H]4C[C@H](O)CC[C@]4(C)[C@H]3CC[C@]12C` [allopregnanolone, 3α-hydroxy-5a-pregnan-20-one], the “binding to 3a-HSD detected by NMR line broadening” value on 3a-HSD was “proven”. Also, the maximum achievable concentration result in data set [1] was “about 20 μM”.

As for `CC(=O)c1cc2ccccc2o1` [2-acetylbenzofuran], the “binding to 3a-HSD” value at 3a-HSD type III (NMR screening hit) was “only weakly”. In addition, on 3a-HSD type III (observed by NMR, severe line broadening), the dissociation rate entry is “so slow”. Besides, the Ki (usually a measure of affinity in units of concentration, obtained from inhibition or displacement) in data set [2] is roughly 132 µM.

As to `NC(=O)c1ccc[n+]([C@@H]2O[C@H](COP(=O)([O-])OP(=O)(O)OC[C@H]3O[C@@H](n4cnc5c(N)ncnc54)[C@H](OP(=O)(O)O)[C@@H]3O)[C@@H](O)[C@H]2O)c1` [NADP], at 3a-HSD, the “binding to 3a-HSD detected by NMR line broadening” value is on record as “proves binding”.

B1: recombinant type-3 human 3a-HSD (Homo sapiens) (protein)
chain: T1 sequence (P52895 1-323)
For B1, in data set [3], the Km (as a rule, the concentration of substrate that gives half-maximal velocity) is 4.9 µM.
